Patent US10537567B2, “Kinase inhibitors for treatment of disease” (BioAxone BioSciences, Inc., priority 2017, dated 2020)
“Also recorded” adds a separate entry of the source.

Assays:
468-target kinome screen = experiment: DiscoverX kinome screen, off-target hits; format: binding, human; settings: 10,000 nM API
Method: (§1) A 468-target kinome screen and a safety screen were carried out to examine the off-target profiles of different kinase inhibitors (DiscoverX, Freemont, Calif.). The kinome screen is a binding assay where API interference of kinase domain/substrate binding is assessed as percent of control. Less than 10% binding (or >90% binding inhibition) is most biologically relevant and considered as a ‘hit’. BA-2017 only had 7 off-target hits compared to BA-1049 and Netarsudil, which both had 11 hits (Table 1) (Studirvant et al. 2016 Bioorg Med Chem Lett. 26(10):2475-2480). […] Published data for Netarsudil were with 200 times less API. […] The NET activity likely helps to decrease IOP but might increase hyperemia, while the SERT activity might have long-term safety consequences (Costagliola et al. 2004 CNS drugs 18(8): p. 475-484).
(§2) In the kinome screen BA-2017 had fewer off-target hits (Table 1) than BA-1049. […] An interesting hit from the kinome screen was on Abl (Table 1), an oncogene that also regulates many cellular activities, including vascular leakage.

GRK1 = biological target: T1, GRK1 (Homo sapiens, UniProt Q15835); experiment: DiscoverX kinome screen; format: binding
T1 construct: are incubated with DNA-tagged kinase domains tagged; DNA tag; purchased DiscoverX
T1 sequence (Q15835 190-455 limits assumed): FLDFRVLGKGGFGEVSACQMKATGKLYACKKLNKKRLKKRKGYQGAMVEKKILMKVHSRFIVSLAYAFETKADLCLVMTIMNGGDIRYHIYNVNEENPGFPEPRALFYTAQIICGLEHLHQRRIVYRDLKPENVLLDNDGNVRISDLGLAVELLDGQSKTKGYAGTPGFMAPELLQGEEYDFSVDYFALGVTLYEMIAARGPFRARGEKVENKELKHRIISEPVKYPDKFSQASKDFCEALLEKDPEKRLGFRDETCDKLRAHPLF
Method: as §1, §2

PKC Δ = biological target: T2, PKC Δ (Homo sapiens, UniProt Q05655); experiment: DiscoverX kinome screen; format: binding; settings: 10,000 nM API
T2 construct: are incubated with DNA-tagged kinase domains tagged; DNA tag; purchased DiscoverX
T2 sequence (Q05655 349-603 limits assumed, stated change not applied): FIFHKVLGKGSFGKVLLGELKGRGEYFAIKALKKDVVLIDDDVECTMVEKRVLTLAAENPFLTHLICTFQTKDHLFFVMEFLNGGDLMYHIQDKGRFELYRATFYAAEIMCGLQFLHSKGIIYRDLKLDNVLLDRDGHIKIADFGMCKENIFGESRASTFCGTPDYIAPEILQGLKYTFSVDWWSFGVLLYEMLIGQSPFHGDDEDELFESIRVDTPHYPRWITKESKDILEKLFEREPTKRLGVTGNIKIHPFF
Method: as §1, §2

PKC ε = biological target: T3, PKC ε (Homo sapiens, UniProt Q02156); experiment: DiscoverX kinome screen; format: binding; settings: 10,000 nM API
T3 construct: are incubated with DNA-tagged kinase domains tagged; DNA tag; purchased DiscoverX
T3 sequence (Q02156 408-668 limits assumed): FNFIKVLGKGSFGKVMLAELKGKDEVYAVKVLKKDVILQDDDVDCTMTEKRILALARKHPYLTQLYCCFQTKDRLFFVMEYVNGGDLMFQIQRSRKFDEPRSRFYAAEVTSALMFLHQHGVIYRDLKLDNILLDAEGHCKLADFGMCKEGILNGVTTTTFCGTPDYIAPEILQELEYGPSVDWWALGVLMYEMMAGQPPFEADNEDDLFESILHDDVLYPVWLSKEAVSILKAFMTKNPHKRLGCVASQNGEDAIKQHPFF
Method: as §1, §2

retinal ganglion cells = experiment: RGC dendritic arbor in Hb9-GFP glaucoma mice; format: in vivo; settings: 1 month, weekly microbead injection, daily eye drops
From the text: To evaluate changes in the RGC dendritic arbor in glaucoma and the ability of the API to prevent neuronal loss in the retina, mice are used which carry an enhanced GFP (eGFP) driven by the Hb9 promoter (B6.Cg-Tg(Hlxb9-GFP)1Tmj/J; Jackson Labs), which directs GFP expression to the on-off direction-sensitive ganglion cell (ooDSGC) sub-population of retinal ganglion cells (Trenholm et al. 2011 Neuron. 71(4): p. 683-694). These mice allow visualization of non-overlapping RGCs for unambiguous identification of individual dendritic arbors. Treated and control glaucoma eyes are examined, as well as normal eyes 1 month after weekly microbead injection and daily eye drops. The eyes are fixed by perfusion and prepared for retinal whole mounts, and the labeled ganglion cells visualized by fluorescence microscopy. Images are imported into ImageJ and analyzed for dendritic field area (using the polygon tool to join points along the perimeter of the field) and subjected to Sholl analysis using the plugin for Image J to be able to characterize dendritic branching and complexity of normal, glaucoma/treated and glaucoma/control RGCs.

[1] = Penetration and distribution in ocular tissues after topical instillation (LC-MS); format: in vivo, Sprague Dawley rats; settings: topical 5% solution of BA-1076, 20 minutes
Method: Adult Sprague Dawley rats (Charles River Laboratories) were used for this experiment. […] One g of tissue was homogenized in 1 mL of 1×PBS. Homogenates were precipitated by pipetting 200 μL of homogenate into a tube using aseptically cut off 1000 μL pipette tips to prevent clogging. Samples are further diluted with 100 μL PBS to aid in precipitation. 900 μL of cold methanol was added to each sample and samples were vortexed for 5 to 10 seconds. Samples were placed at 4° C. for 30 to 40 min and then centrifuged at 10,000 g for 15 min at 4° C. The supernatant is collected and stored at −80° C. until analyzed.
For the optic nerve sample, the concentration is shown per length of optic nerve (right y-axis). […] Therefore, drug is available in the retina and optic nerve for treating these tissues affected in glaucoma and other retinal diseases.
In FIG. 14 we examined the ability of metabolite to penetrate the ocular tissues of the eye after topical instillation of a 3% solution of metabolite. In comparison with FIG. 13, that also the metabolite has adequate penetration into ocular and CNS tissue. Of particular note is the penetration in the retina and presence in the optic nerve. All compounds were given topically as eye drops to the eye of adult Sprague Dawley rats. Twenty minutes later the indicated tissues were removed and the parent compound and active metabolite were analyzed by LC/MS.

human TM cells = experiment: Fibronectin immunoblot in TGFβ-stimulated TM cells; format: cell-based; settings: 2.5 ng/ml TGFβ, 0-100 μM, 24 hours
[2] = biological target: T4, norepinephrine transporter (NET) (Homo sapiens, UniProt P23975); experiment: Safety screen; format: biochemical; settings: 10,000 nM API
T4 construct: purchased DiscoverX
T4 sequence (P23975 whole entry): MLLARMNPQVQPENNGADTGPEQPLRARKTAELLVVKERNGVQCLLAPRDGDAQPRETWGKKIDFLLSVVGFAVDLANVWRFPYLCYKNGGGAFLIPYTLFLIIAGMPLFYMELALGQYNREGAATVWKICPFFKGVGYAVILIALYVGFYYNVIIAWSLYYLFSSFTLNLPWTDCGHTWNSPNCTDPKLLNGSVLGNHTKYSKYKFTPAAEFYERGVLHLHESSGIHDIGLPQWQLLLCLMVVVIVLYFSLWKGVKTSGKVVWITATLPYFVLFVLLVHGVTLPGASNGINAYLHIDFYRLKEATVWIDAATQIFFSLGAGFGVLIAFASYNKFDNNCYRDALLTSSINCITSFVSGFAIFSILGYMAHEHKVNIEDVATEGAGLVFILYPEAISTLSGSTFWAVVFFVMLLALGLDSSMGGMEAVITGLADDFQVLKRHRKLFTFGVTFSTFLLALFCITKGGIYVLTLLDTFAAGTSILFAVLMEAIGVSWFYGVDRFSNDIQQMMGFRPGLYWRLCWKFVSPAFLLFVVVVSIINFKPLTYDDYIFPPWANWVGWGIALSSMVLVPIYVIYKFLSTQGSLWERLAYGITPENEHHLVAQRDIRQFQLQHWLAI
Method: as §1
(§3) These targets include GPCRs, transporters, ion channels, nuclear receptors, non-kinase enzymes.

[3] = biological target: T5, serotonin transporter (SERT) (Homo sapiens, UniProt P31645); experiment: Safety screen; format: biochemical; settings: 10,000 nM API
T5 construct: purchased DiscoverX
T5 sequence (P31645 whole entry): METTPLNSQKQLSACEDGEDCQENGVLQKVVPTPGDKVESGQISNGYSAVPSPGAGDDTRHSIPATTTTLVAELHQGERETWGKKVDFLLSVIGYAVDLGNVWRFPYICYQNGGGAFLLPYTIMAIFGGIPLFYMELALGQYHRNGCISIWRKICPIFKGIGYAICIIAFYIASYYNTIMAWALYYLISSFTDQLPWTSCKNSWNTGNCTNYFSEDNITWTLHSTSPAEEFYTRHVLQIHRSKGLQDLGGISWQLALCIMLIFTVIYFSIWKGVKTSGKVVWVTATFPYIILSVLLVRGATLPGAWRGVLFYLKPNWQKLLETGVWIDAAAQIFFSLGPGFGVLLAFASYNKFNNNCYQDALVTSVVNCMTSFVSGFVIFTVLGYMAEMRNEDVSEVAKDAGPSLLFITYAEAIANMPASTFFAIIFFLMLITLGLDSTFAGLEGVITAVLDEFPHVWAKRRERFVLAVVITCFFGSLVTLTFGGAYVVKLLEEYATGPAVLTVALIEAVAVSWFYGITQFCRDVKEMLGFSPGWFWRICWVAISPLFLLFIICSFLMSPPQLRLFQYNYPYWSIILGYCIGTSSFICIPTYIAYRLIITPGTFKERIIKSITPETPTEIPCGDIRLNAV
Method: as §1, §3

[4] = tested on: rat midbrain dopaminergic neurons; experiment: MPP+ toxicity in cultured midbrain dopaminergic neurons; format: cell-based; settings: 0.25-50 μM, 20 μM MPP+, 48 hours
Method: These in vitro experiments are conducted using primary cultures of embryonic rat midbrain dopaminergic neurons. MPP+ is known to cause the death of cultured midbrain dopaminergic neurons. Rho kinase and Abl kinase inhibitors are tested individually at varying concentrations for their ability to prevent MPP+-induced cell death.
Primary cultures of rat midbrain dopaminergic neurons are established from cells acutely isolated from the ventral midbrain of embryonic day 14 rats (Charles River; Wilmington, Mass.). The cells are plated in serum-free conditions (Neurobasal plus B-27 Supplements; Thermo-Fisher; Waltham, Mass.) onto glass coverslips coated with poly-ornithine and laminin as attachment factors. Cells are cultured overnight on the coated coverslips in a 37° C./5% CO2 tissue culture incubator prior to the initiation of the varying treatments.
On day 3 after plating, MPP+(Sigma Chemical; St. Louis, Mo.) is added to the medium at 20 μM final concentration. The cultures are allowed to continue for an additional 48 hours. At the end of the culture period, the cells are washed, and then fixed with 4% paraformaldehyde solution prior to permeabilization and blocking with 10% normal goat serum in PBS. […] Specimens are examined using fluorescence microscopy and the numbers of TH-positive neurons with non-pyknotic nuclei are counted in 6 to 8 high power fields per specimen.

Compound	Kinome Screen Other (other off-target kinase) (468-target kinome screen)	# Hits <10% binding (468-target kinome screen; hit = less than 10% binding (>90% binding inhibition))	Off-target activity on GRK1 (GRK1)	Kinome Screen % inhibition PKC Δ (PKC Δ) [%]	Kinome Screen % inhibition PKC ε (PKC ε) [%]	Retinal ganglion cell dendritic arbors (retinal ganglion cells)	Penetration into ocular tissues [1]	Fibronectin levels (human TM cells)	Safety Screen % inhibition NET [2]	Safety Screen % inhibition SERT [3]	Number of surviving TH-positive neurons [4]
C[C@H](N)C1CCN(S(=O)(=O)c2cccc3cnccc23)CC1 [BA-1076]	(ABL)	7	does not have this off-target effect; also recorded: neither BA-1076 nor its metabolite, BA-2057, exhibits off-target inhibition of GRK1	<70	86	protect and/or restore retinal ganglion cell dendritic arbors	penetrate the tissue of the eye, including the CNS tissue of the retina	Fibronectin levels decreased dose-dependently	none	none	dose-dependent increase in the number of surviving neurons
C[C@H](N)C1CCN(S(=O)(=O)c2cccc3c(=O)[nH]ccc23)CC1 [BA-2057]	none		neither BA-1076 nor its metabolite, BA-2057, exhibits off-target inhibition of GRK1	<70	<70	protect and/or restore retinal ganglion cell dendritic arbors	penetrate the tissue of the eye, including the CNS tissue of the retina; also recorded: the metabolite is better able to penetrate the optic nerve	more potent in decreasing fibronectin deposition than BA-1076	none	none	dose-dependent increase in the number of surviving neurons
